Starred links: 1 amine or outer side, 2 acyl side, 3 side chain; linkers in the order of their positions; H or OH if unused. Non-standard residues stand in square brackets, D forms with d. Residues, ends and D or L forms follow the SMILES beside them. γGlu = O=C(O)[C@H](CCC(=O)[*:2])N[*:1]
How the values were obtained:
[1] = system: TSU prostate cancer cell line; test: LD50 for killing against TSU prostate cancer cell line; type: cell-based, human; settings: TSU prostate cancer cell line (non-PSMA producing)
Excerpt: The prodrugs are hydrolyzed by PSMA and release the corresponding Asp- or Glu-containing thapsigargin analogs, or the thapsigargin analog itself, and also lack potent cytotoxicity when not metabolized by PSMA. Non-PSMA producing TSU-Pr1 human prostate cancer cell line is exposed to each of the PSMA prodrugs at doses that are approximately 50-times the LD50 for the corresponding free thapsigargin analog.

[2] = Stability of peptides in serum; type: in vitro ADME
[3] = Stability to hydrolysis in human plasma; type: in vitro ADME
[4] = Stability to hydrolysis in mouse plasma; type: in vitro ADME

**Q.** With 12ADT-Glu [Composition 12ADT-Glu] as the molecule, how does the “LD50 value for killing” value [1] read?
**A.** The value was “approximately 50 nM”.

**Q.** For `N[C@@H](CCC(=O)N[C@@H](CCC(=O)N[C@@H](CCC(=O)N[C@@H](CC(=O)O)C(=O)N[C@@H](CCC(=O)O)C(=O)O)C(=O)O)C(=O)O)C(=O)O` [Glu*Glu*Glu*Asp-Glu] ({γGlu-γGlu-γGlu}-Asp-Glu-OH; N-terminus and C-terminus assumed), which stability in serum [2] is on record?
**A.** Its stability in serum is “high stability”.

**Q.** Which “stability to hydrolysis in plasma” value [3] does the source give for `N[C@@H](CC(=O)O)C(=O)N[C@@H](CCC(=O)N[C@@H](CCC(=O)N[C@@H](CC(=O)O)C(=O)N[C@@H](CCC(=O)O)C(=O)O)C(=O)O)C(=O)O` [Asp-Glu*Glu*Asp-Glu] (H-D[γGlu][γGlu]DE-OH; N-terminus and C-terminus assumed) here?
**A.** The value was “completely stable”.

**Q.** What about the “stability to hydrolysis in plasma” value [4] of the same molecule?
**A.** The value was “completely stable”.

**Q.** Which stability in serum [2] does the source give for `NC(=O)CC[C@H](NC(=O)[C@H](CC(=O)O)NC(=O)CC[C@H](NC(=O)CC[C@H](NC(=O)CC[C@H](N)C(=O)O)C(=O)O)C(=O)O)C(=O)O` [Glu*Glu*Glu*Asp-Gln] ({γGlu-γGlu-γGlu}-Asp-Gln-OH; N-terminus and C-terminus assumed) here?
**A.** Its stability in serum is “high stability”.

From US20150265572A1, “INJECTABLE CANCER COMPOSITIONS” (GENSPERA, INC., priority 2012, published 2015)
